Experimental data from patent US10077261B2, “Imidazolin-5-one derivative useful as FASN inhibitors for the treatment of cancer” (Janssen Pharmaceutica NV, priority 2012, dated 2018).

Experiments:
[1] = target: T1, hFASN enzyme (full length) (Homo sapiens, UniProt P49327); assay: Fatty Acid Synthase (FASN) inhibition scintillation proximity assay; assay type: biochemical; conditions: for inhibition at 10 µM: read-out: Human FASN % inhibition @ 10 μM, 10 μM test compound; for IC50: read-out: Human FASN pIC50 (converted)
T1 construct: 10 μL hFASN enzyme (full length, 300 ng, purified in house); made in house
T1 sequence (P49327 whole entry): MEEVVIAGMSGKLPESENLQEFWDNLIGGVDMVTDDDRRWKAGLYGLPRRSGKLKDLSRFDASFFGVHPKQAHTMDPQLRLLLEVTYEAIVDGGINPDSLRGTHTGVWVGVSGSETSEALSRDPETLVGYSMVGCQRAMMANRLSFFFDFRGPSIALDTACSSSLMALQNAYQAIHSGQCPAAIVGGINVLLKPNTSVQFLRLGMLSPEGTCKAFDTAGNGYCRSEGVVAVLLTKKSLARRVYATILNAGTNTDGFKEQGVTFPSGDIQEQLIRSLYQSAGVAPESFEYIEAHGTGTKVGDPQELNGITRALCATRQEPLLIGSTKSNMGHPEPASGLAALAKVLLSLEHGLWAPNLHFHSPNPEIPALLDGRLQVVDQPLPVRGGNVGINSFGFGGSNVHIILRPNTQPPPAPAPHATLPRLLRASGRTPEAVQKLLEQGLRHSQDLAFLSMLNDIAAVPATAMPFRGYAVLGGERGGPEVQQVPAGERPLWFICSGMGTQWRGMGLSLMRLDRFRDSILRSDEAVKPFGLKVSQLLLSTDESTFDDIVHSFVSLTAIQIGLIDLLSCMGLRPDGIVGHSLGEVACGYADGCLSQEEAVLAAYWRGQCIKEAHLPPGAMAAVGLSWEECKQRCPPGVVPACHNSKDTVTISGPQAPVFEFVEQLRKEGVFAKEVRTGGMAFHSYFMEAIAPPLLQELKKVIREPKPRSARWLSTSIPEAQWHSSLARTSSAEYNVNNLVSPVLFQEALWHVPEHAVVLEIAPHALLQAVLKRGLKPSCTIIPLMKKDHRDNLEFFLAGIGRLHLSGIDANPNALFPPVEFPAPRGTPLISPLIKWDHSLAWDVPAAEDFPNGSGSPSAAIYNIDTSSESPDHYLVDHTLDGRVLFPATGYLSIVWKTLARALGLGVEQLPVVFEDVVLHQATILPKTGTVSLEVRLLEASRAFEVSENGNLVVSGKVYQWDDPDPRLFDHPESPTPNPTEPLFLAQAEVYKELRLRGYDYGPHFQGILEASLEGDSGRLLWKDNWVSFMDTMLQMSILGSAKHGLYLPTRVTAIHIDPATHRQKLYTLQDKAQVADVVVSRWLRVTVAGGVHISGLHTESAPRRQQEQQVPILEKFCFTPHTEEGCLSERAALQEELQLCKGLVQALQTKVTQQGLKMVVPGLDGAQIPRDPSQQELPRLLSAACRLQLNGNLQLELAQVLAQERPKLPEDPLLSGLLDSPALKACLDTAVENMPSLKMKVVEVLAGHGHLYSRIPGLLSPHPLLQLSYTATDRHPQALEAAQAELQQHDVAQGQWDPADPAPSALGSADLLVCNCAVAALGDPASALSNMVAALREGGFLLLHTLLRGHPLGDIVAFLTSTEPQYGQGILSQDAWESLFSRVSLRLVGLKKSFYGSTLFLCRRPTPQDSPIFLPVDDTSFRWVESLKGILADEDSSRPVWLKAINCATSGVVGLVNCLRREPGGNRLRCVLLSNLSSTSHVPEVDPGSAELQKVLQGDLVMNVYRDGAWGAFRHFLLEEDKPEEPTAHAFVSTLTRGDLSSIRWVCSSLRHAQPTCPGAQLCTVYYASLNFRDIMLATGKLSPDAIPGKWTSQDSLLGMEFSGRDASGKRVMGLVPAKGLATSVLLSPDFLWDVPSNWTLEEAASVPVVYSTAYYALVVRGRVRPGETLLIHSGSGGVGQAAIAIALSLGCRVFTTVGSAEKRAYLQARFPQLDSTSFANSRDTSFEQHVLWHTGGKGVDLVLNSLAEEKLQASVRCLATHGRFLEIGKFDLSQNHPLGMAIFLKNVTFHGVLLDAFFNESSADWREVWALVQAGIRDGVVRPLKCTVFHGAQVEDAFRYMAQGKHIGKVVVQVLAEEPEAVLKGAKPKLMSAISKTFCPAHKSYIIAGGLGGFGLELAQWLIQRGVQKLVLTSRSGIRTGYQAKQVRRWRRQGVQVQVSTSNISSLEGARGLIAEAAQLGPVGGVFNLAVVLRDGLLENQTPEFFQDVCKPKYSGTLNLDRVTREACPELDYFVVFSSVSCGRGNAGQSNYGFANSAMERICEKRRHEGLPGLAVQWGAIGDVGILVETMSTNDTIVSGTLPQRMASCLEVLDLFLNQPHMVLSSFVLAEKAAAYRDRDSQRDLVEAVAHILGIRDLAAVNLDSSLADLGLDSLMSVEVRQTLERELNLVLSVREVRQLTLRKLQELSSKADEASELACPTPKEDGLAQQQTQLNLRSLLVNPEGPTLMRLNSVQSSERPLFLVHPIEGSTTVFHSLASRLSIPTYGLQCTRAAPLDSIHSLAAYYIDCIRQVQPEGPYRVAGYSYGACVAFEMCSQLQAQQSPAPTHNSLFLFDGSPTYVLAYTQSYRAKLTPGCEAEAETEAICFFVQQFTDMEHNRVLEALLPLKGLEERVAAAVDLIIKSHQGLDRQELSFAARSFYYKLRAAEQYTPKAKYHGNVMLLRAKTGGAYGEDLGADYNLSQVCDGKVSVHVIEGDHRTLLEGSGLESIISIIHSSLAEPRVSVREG
Procedure, shortened: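 Proximity read-out: hydrophobic ^3H-palmitate formed from ^3H-acetyl-CoA and malonyl-CoA binds streptavidin imaging beads, imaged at 610±20 nm at least 24 h after stopping. Enzyme was in-house purified full-length hFASN, 300 ng, in pH 7.5 phosphate/DTT buffer; compound series 30 μM down to 0.01 μM, normalized to controls, 4-parameter fit.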

[2] = target: Fatty Acid Synthase Keto-reductase Domain (FASN KR) (Homo sapiens, UniProt P49327); assay: Fatty Acid Synthase keto-reductase domain (FASN KR) inhibition, NADPH oxidation at 340 nm
Chain of Fatty Acid Synthase Keto-reductase Domain (FASN KR) (P49327 whole entry, the tested form may be a part): as the sequence (P49327 whole entry) above
Description: After 20 minutes incubation at room temperature the plate was measured again (T2).
The decrease in absorbance was calculated as (Absorbance before incubation T1)−(Absorbance following incubation T2).
A plot of Controlmin versus test compound concentration was fitted to a 4-parameter logistic curve using a non-linear least squares regression method.

[3] = system: A2780 ovarian cells; assay: A2780 ovarian cell proliferation assay in lipid reduced medium, with palmitate (MTT); assay type: cell-based; conditions: Homo sapiens, A2780, 96 h; read-out: pIC50 A2780 Ovarian Cell, With Palmitate (converted)
Procedure, shortened: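 In this palmitate-supplemented format, compound dilutions (30 μM down to 0.01 μM) are added to cells in lipid-reduced serum with 25 μM palmitate, 0.2% fatty-acid-free BSA and 0.25% ethanol. After four days (96 h) MTT absorbance at 544 nm is recorded and fitted by minimum sum of squares.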

[4] = system: A2780 ovarian cells; assay: A2780 ovarian cell proliferation assay in lipid reduced medium, without palmitate (MTT); assay type: cell-based; conditions: Homo sapiens, A2780, 96 h; read-out: pIC50 A2780 Ovarian Cell, Without Palmitate (converted)
[5] = system: LNCaP-Vancouver prostate cells; assay: In vitro LNCaP Vancouver prostate cell proliferation assay in lipid reduced medium; assay type: cell-based; conditions: read-out: pIC50 LNCaP_Vancouver prostate cell (converted)
Description: LNCaP-Vancouver prostate cells were obtained from the Vancouver Prostate Cancer Centre. Cells were maintained in RPMI-1640, 10% Fetal Calf Serum (FCS, Hyclone), 2 mM glutamine and 50 μg/ml Gentamicin.
For the proliferation experiment 1500 LNCaP-Vancouver cells per well were seeded in a 384-well black with clear bottom plate (costar 3712BC) in 40 μl RPMI-1640, 10% Lipid reduced serum (LRS, Hyclone), 50 μg/ml Gentamicin and 2 mM Glutamine and incubated at 37° C., 5% CO2. The next day 10 μl of test compound/DMSO diluted in medium was added (3E-5M, 1E-5M, 3E-6M, 1E-6M, 3E-7M, 1E-7M, 3E-8M, 1E-8M final concentration). Compounds were tested in duplicate. After 96 h incubation at 37° C., 5% CO2 25 μl ATP-glow mix was added. The plate was incubated for 30 min at 37° C. and luminescence was measured with the Envision.
Analysis: Determination of pIC50 Values
pIC50 values were calculated as follows.
where mLC and mHC are the means of the low control wells and high control wells on the plate, after manual exclusion of outliers. The relation between the % Controlmin values and concentration was fitted to a 4-parameter logistic curve using a non-linear least squares regression method to determine the pIC50 value. Outlying data points were excluded manually to get a correct fit. The pIC50 corresponds to −log 10(IC50), if the IC50 is expressed in molar units (http://www.ncbi.nlm.nih.gov/books/NBK91994). The IC50 parameter was always determined by non-linear regression, but one or more of the other parameters may have been held fixed on a relevant input value, such as 0 for the bottom values.
For dose response curves with FASN inhibitors in LNCaP-Vancouver or PC-3M-Luc-C6 cells the curves bottom out around 30 to 40% of the control value. A standard fit PL2, forcing the lower bound to this level was used.
Representative compounds of the present invention were tested according to the procedure as described in Biological Example 4a and 4b above, with results as listed in Table 9, below.

Row | Structure (SMILES) | inhibition at 10 µM [1] | IC50 [1] | IC50 [2] | IC50 [3] | IC50 [4] | IC50 [5] | Human FASN pIC50 ([1]; hFASN enzyme full length, scintillation proximity assay, "~" = standard error of pIC50 larger than 0.5)
1 | Cc1sc2ccc(-c3ccc(C4=NC5(CC5)C(=O)N4C[C@@H]4CCN(C(=O)C5CC5)C4)cc3)cc2c1C [compound 296, (R)-6-((1-(cyclopropanecarbonyl)pyrrolidin-3-yl)methyl)-5-(4-(2,3-dimethylbenzo[b]thiophen-5-yl)phenyl)-4,6-diazaspiro[2.4]hept-4-en-7-one] | 106% | 0.0389 µM | 0.0813 µM | > 10 µM | ~2.09 µM | 3.63 µM | –
2 | Cc1cc(-c2ccc3cn(C)nc3c2)ccc1C1=NC2(CC2)C(=O)N1CC1CN(C(=O)C2(C)CC2)C1 [compound 336, 5-(2-methyl-4-(2-methyl-2H-indazol-6-yl)phenyl)-6-((1-(1-methylcyclopropanecarbonyl)azetidin-3-yl)methyl)-4,6-diazaspiro[2.4]hept-4-en-7-one] | 103% | 0.0501 µM | 0.0692 µM | > 10 µM | 0.02 µM | 0.105 µM | –
3 | Cn1ncc2cc(-c3ccc(C4=NC5(CC5)C(=O)N4CC4CN(C(=O)C5CC5)C4)c(F)c3)ccc21 [compound 347, 6-((1-(cyclopropanecarbonyl)azetidin-3-yl)methyl)-5-(2-fluoro-4-(1-methyl-1H-indazol-5-yl)phenyl)-4,6-diazaspiro[2.4]hept-4-en-7-one] | 98% | 0.049 µM | 0.12 µM | > 10 µM | ~0.0501 µM | 0.708 µM | –
4 | Cn1ncc2cc(-c3ccc(C4=NC5(CC5)C(=O)N4C[C@@H]4CCN(C(=O)C5CC5)C4)nc3)ccc21 [compound 397, 6-{[(3R)-1-(Cyclopropylcarbonyl)pyrrolidin-3-yl]methyl}-5-[5-(1-methyl-1H-indazol-5-yl)pyridin-2-yl]-4,6-diazaspiro[2.4]hept-4-en-7-one] | 90% | – | ~3.89 µM | > 10 µM | 1.55 µM | 3.02 µM | 6.1
5 | Cc1sc2ccc(-c3ccc(C4=NC5(CC5)C(=O)N4C[C@@H]4CCN(C(=O)C5CC5)C4)cc3F)cc2c1C [compound 406, 6-{[(3R)-1-(Cyclopropylcarbonyl)pyrrolidin-3-yl]methyl}-5-[4-(2,3-dimethyl-1-benzothiophen-5-yl)-3-fluorophenyl]-4,6-diazaspiro[2.4]hept-4-en-7-one] | 99% | 0.126 µM | 0.363 µM | > 10 µM | 6.03 µM | 7.08 µM | –
6 | O=C(C1CC1)N1CC[C@@H](CN2C(=O)C3(CC3)N=C2c2ccc(-c3cccc4[nH]ncc34)cn2)C1 [compound 429, 6-{[(3R)-1-(Cyclopropylcarbonyl)pyrrolidin-3-yl]methyl}-5-[5-(1H-indazol-4-yl)pyridin-2-yl]-4,6-diazaspiro[2.4]hept-4-en-7-one] | 96% | 0.24 µM | 0.513 µM | > 10 µM | 0.417 µM | 1.32 µM | –
7 | Cc1cc(C2=NC3(CC3)C(=O)N2CC2CN(C(=O)C3CC3)C2)ccc1-c1ccc2[nH]ccc2c1 [compound 435, 6-{[1-(Cyclopropylcarbonyl)azetidin-3-yl]methyl}-5-[4-(1H-indol-5-yl)-3-methylphenyl]-4,6-diazaspiro[2.4]hept-4-en-7-one] | 91% | 0.263 µM | 1.23 µM | > 10 µM | ~0.933 µM | 3.47 µM | –

The remaining lines, values ahead:

Row | inhibition at 10 µM [1] | IC50 [1] | IC50 [2] | IC50 [3] | IC50 [4] | IC50 [5] | Human FASN pIC50 ([1]; hFASN enzyme full length, scintillation proximity assay, "~" = standard error of pIC50 larger than 0.5) | Structure (SMILES)
8 | 99% | 0.151 µM | 0.2 µM | > 10 µM | 0.182 µM | 0.525 µM | – | Cn1nc(C2CC2)c2cc(-c3ccc(C4=NC5(CC5)C(=O)N4C[C@@H]4CCN(C(=O)C5CC5)C4)cc3)ccc21 [compound 465, 6-{[(3R)-1-(Cyclopropylcarbonyl)pyrrolidin-3-yl]methyl}-5-[4-(3-cyclopropyl-1-methyl-1H-indazol-5-yl)phenyl]-4,6-diazaspiro[2.4]hept-4-en-7-one]
9 | 87% | 0.479 µM | 1.35 µM | > 10 µM | ~2.69 µM | 3.8 µM | – | O=C(C1CC1)N1CC[C@@H](CN2C(=O)C3(CC3)N=C2c2ccc(-c3ccc4cnc(Cl)cc4c3)cc2)C1 [compound 466, 5-[4-(3-Chloroisoquinolin-6-yl)phenyl]-6-{[(3R)-1-(cyclopropylcarbonyl)pyrrolidin-3-yl]methyl}-4,6-diazaspiro[2.4]hept-4-en-7-one]
10 | 99% | 0.182 µM | 0.331 µM | > 10 µM | 0.417 µM | 1.29 µM | – | CCC(=O)N1CC(CN2C(=O)C3(CC3)N=C2c2ccc(-c3ccc4c(cnn4C)c3)cc2C)C1 [compound 471, 5-[2-Methyl-4-(1-methyl-1H-indazol-5-yl)phenyl]-6-[(1-propanoylazetidin-3-yl)methyl]-4,6-diazaspiro[2.4]hept-4-en-7-one]
11 | 95% | 0.269 µM | 0.525 µM | > 10 µM | ~0.275 µM | 2.19 µM | – | Cc1cc(-c2ccc3c(cnn3C)c2)ccc1C1=NC2(CC2)C(=O)N1CC1CN(C(=O)C(C)C)C1 [compound 473, 5-[2-Methyl-4-(1-methyl-1H-indazol-5-yl)phenyl]-6-{[1-(2-methylpropanoyl)azetidin-3-yl]methyl}-4,6-diazaspiro[2.4]hept-4-en-7-one]
12 | 90% | 0.263 µM | 0.617 µM | > 10 µM | ~2.04 µM | 3.72 µM | – | Cc1cc(C2=NC3(CC3)C(=O)N2C[C@@H]2CCN(C(=O)C3CC3)C2)ccc1-c1ccc2oc(C#N)cc2c1 [compound 476, 5-[4-(6-{[(3R)-1-(Cyclopropylcarbonyl)pyrrolidin-3-yl]methyl}-7-oxo-4,6-diazaspiro[2.4]hept-4-en-5-yl)-2-methylphenyl]-1-benzofuran-2-carbonitrile]
13 | 97% | 0.155 µM | 0.525 µM | > 10 µM | ~0.257 µM | 1.15 µM | – | Cc1cc(-c2ccc3c(cnn3C)c2)ccc1C1=NC2(CC2)C(=O)N1CC1CN(C(=O)C2(CO)CC2)C1 [compound 480, 6-[(1-{[1-(Hydroxymethyl)cyclopropyl]carbonyl}azetidin-3-yl)methyl]-5-[2-methyl-4-(1-methyl-1H-indazol-5-yl)phenyl]-4,6-diazaspiro[2.4]hept-4-en-7-one]
14 | 81% | 0.331 µM | 0.363 µM | > 10 µM | 0.0933 µM | 1.05 µM | – | Cn1ncc2cc(-c3ccc(C4=NC5(CC5)C(=O)N4C[C@@H]4CCN(C(=O)C5COC5)C4)cc3)ccc21 [compound 490, 5-[4-(1-Methyl-1H-indazol-5-yl)phenyl]-6-{[(3R)-1-(oxetan-3-ylcarbonyl)pyrrolidin-3-yl]methyl}-4,6-diazaspiro[2.4]hept-4-en-7-one]
15 | 87% | 0.676 µM | 3.09 µM | > 10 µM | 1 µM | 3.98 µM | – | O=C1CCc2cc(-c3ccc(C4=NC5(CC5)C(=O)N4C[C@@H]4CCN(C(=O)C5CC5)C4)cc3)ccc2N1 [compound 512, 6-[4-(6-{[(3R)-1-(Cyclopropylcarbonyl)pyrrolidin-3-yl]methyl}-7-oxo-4,6-diazaspiro[2.4]hept-4-en-5-yl)phenyl]-3,4-dihydroquinolin-2(1H)-one]
